The values that follow come from patent US12534748B2, “Engineered beta-subunit of tryptophan synthase for production of non-canonical amino acids” (California Institute of Technology, priority 2015, dated 2026).

As a reminder, the kcat is the number of substrate molecules converted per active site and unit of time at saturation. One may read the Km as the substrate concentration at which the rate is half of its maximum.

For experiment [1], the target named is T1, Thermotoga maritima TrpB variant TmTrpB^triple (P19G, I69V, T292S), SEQ ID NO: 34 (Thermotoga maritima, UniProt P50909, I69V/P19G/T292S).
T1 sequence (P50909 with tags, fused parts or gaps P19G/I69V/T292S): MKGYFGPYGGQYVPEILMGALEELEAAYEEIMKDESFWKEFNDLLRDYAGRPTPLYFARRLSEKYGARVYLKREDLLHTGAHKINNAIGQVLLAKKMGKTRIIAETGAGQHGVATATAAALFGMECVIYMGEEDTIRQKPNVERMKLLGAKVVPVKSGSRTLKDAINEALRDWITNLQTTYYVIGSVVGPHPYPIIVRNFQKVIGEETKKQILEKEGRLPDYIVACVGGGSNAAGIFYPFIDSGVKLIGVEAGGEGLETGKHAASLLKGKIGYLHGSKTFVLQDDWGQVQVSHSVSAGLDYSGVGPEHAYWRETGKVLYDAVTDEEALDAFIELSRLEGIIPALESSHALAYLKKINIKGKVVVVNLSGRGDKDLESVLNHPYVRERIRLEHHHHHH
As to the kind of experiment: Tryptophan formation from L-serine and indole, kinetics of TmTrpB^triple. Format: biochemical. As to the method: (§1) Kinetics and UV-Vis Spectroscopy. Data were collected between 550 and 250 nm on a UV1800 Shimadzu spectrophotometer (Shimadzu) using 0.25-20 μM of enzyme in 200 mM potassium phosphate (pH 8.0) in a quartz cuvette. Samples were incubated at 75° C. for >3 min to ensure a stable temperature was reached. PfTrpB activity (kcat) was measured by monitoring tryptophan formation at 290 nm using Δe290=1.89 mM^−1·cm^−1.
Cloning, expression, and purification of the different orthologs. The genes encoding AfTrpB (UNIPROT ID O28672), TmTrpB (UNIPROT ID P50909) and EcTrpB (UNIPROT ID P0A879) were obtained from IDT and cloned into pET22(b)+ using Gibson Assembly. Protein expression was carried out in E. coli BL21 E. cloni Express cells (Lucigen) by inoculating 10-mL Terrific Broth (with 100 μg/mL ampicillin (TBamp)) with a single colony and incubated over night at 37° C. and 250 rpm. These overnight cultures were used to scale up to 500-mL TBamp expression cultures, which were grown by shaking at 250 rpm and 37° C. for ˜3 h or until an OD600 of 0.8 was reached. […]
(§2) The next homolog, TmTrpB, was examined. […] The variants without the T292S mutation lacked this probative absorbance peak, but the decrease at 428 nm and concomitant increase at 350 nm are consistent with a similar, though less pronounced activation.

Experiment [2] concerns Thermotoga maritima TrpB, wild type (literature). As to conditions: kinetics measured at 80° C., cited from earlier work.
Experiment [3] addresses T2, Thermotoga maritima TrpB variant TmTrpB^T292S, SEQ ID NO: 26 (Thermotoga maritima, UniProt P50909, T292S).
T2 sequence (P50909 with tags, fused parts or gaps T292S): T1 sequence (P50909 with tags, fused parts or gaps P19G/I69V/T292S) with G19P, V69I
As to the kind of experiment: Tryptophan formation from L-serine and indole, kinetics of TmTrpB^T292S. Format: biochemical. How it is done:
as §1
Cloning, expression, and purification of the different orthologs. The genes encoding AfTrpB (UNIPROT ID O28672), TmTrpB (UNIPROT ID P50909) and EcTrpB (UNIPROT ID P0A879) were obtained from IDT and cloned into pET22(b)+ using Gibson Assembly. Protein expression was carried out in E. coli BL21 E. cloni Express cells (Lucigen) by inoculating 10-mL Terrific Broth (with 100 μg/mL ampicillin (TBamp)) with a single colony and incubated over night at 37° C. and 250 rpm. These overnight cultures were used to scale up to 500-mL TBamp expression cultures, which were grown by shaking at 250 rpm and 37° C. for ˜3 h or until an OD600 of 0.8 was reached. Then, after chilling the cultures on ice for 20 min, induction was conducted by the addition of IPTG to a final concentration of 1 mM. Induced cultures were allowed to grow at 250 rpm and 20° C. for another 20 h. After centrifugation, pelleted cells were frozen and stored at −20° C. until further use. For protein purification, thawed cells were resuspended in 50 mM potassium phosphate buffer (KPi, pH 8, 20 mM imidazole and 100 mM NaCl (buffer A)), with 200 μM PLP. Lysis was performed by adding BugBuster (Novagen) and incubating for 15 min at 37° C. Once cells were lysed, they were centrifuged to obtain the soluble protein-rich fraction. In the case of TmTrpB (but not for AfTrpB or EcTrpB), the lysate was then incubated at 75° C. for 20 min and was subjected to another centrifugation step. […]
as §2

For experiment [4], the system named is Thermococcus kodakarensis TrpB, wild type (literature). To be noted: cited from earlier work.

Numbering of substitutions follows the chain as printed.

In the case of `c1ccc2[nH]ccc2c1` [indole], the kcat in experiment [1] (75° C.) was 9.8 s⁻¹; in experiment [2] it was 4.2 s⁻¹; in experiment [3] (75° C.), 5.8 s⁻¹; in experiment [4], 1.04 ± 0.03 s⁻¹. Further, the increase in kcat is 8 fold in experiment [1] (with respect to wild type) and 4 fold in experiment [3] (with respect to wild type). Moreover, the Km in experiment [2] (read-out: KM indole) was 40 µM; in experiment [4] (read-out: KM indole) it was 63 ± 5 µM. The “increase in kcat more than TmTrpA binding” value in experiment [3] (relative to TmTrpA binding (TmTrpS)) came to 3 fold.
